Consider 29 molecules from patent publication EP1953147A1, “HETEROCYCLIC COMPOUND AND MEDICINAL APPLICATION THEREOF” (priority 2005, dated 2007).

Counter-ions that a name gives are not always drawn.

The experiment relates to ΔG/SEAP/HCV E1E2. The experiment is described as follows: Effect of test substance on cell infection with HCV pseudotype virus (SEAP reporter assay in HepG2 cells). Format: cell-based. Particulars: Hepatitis C virus. On the technique in general: A reporter such as luciferase makes a cellular process visible.
The term IC50 denotes the concentration needed to halve the response being measured. Read a high IC50 as lower potency. As to `COc1cc(C)cc(-c2nn(-c3cc(-c4cccnn4)ccc3C(F)(F)F)c(=O)c3c2CCN3)c1` [Example 13, 4-(3-methoxy-5-methyl-phenyl)-6-(5-pyridazin-3-yl-2-trifluoromethyl-phenyl)-1,2,3,6-tetrahydro-pyrrolo[2,3-d]pyridazin-7-one], the IC50 is less than 100 nM.
The molecule `COc1cc(OC)cc(-c2nn(-c3cc(-c4cccnn4)ccc3C(F)(F)F)c(=O)c3c2CC(C)N3)c1` (centres unmarked) [Example 19, 4-(3,5-dimethoxy-phenyl)-2-methyl-6-(5-pyridazin-3-yl-2-trifluoromethyl-phenyl)-1,2,3,6-tetrahydro-pyrrolo[2,3-d]pyridazin-7-one] came in with a concentration for half-maximal inhibition (IC50) of less than 100 nM.
In turn, `COc1cc(OC)cc(-c2nn(-c3cc(CO)ccc3C(F)(F)F)c(=O)c3c2CCC3)c1` [Example 149, 4-(3,5-dimethoxy-phenyl)-2-(5-hydroxymethyl-2-trifluoromethyl-phenyl)-2,5,6,7-tetrahydro-cyclopenta[d]pyridazin-1-one] yielded an IC50 of less than 100 nM.
Under `COc1cc(OC)cc(-c2nn(-c3cc(N4CCOCC4)ccc3C(F)(F)F)c(=O)c3c2CCC3)c1` [Example 70, 4-(3,5-dimethoxy-phenyl)-2-(5-morpholin-4-yl-2-trifluoromethyl-phenyl)-2,5,6,7-tetrahydro-cyclopenta[d]pyridazin-1-one] stands less than 100 nM; under `COc1cc(OC)cc(-c2nn(-c3ccccc3Cl)c(=O)c3c2CCC3)c1` [Example 86, 2-(2-chloro-phenyl)-4-(3,5-dimethoxy-phenyl)-2,5,6,7-tetrahydro-cyclopenta[d]pyridazin-1-one], 100 to 10000 nM; under `COc1cc(OC)cc(-c2nn(-c3cc(NCC4CCCC4)ccc3C(F)(F)F)c(=O)c3c2CCC3)c1` [Example 148, 2-[5-(cyclopentylmethyl-amino)-2-trifluoromethylphenyl]-4-(3,5-dimethoxy-phenyl)-2,5,6,7-tetrahydro-cyclopenta[d]pyridazin-1-one], 100 to 10000 nM.
Next, `Cc1ccccc1-c1nn(-c2cc(N3CC[C@H](O)C3)ccc2C(F)(F)F)c(=O)c2c1CCC2` [Example 133, 2-[5-((S)-3-hydroxy-pyrrolidin-1-yl)-2-trifluoromethyl-phenyl]-4-o-tolyl-2,5,6,7-tetrahydro-cyclopenta[d]pyridazin-1-one]: 100 to 10000 nM; `O=c1c2c(c(-c3ccc(Br)cc3)nn1-c1cc(N3CC[C@H](O)C3)ccc1C(F)(F)F)CCC2` [Example 90, 4-(4-bromo-phenyl)-2-[5-((S)-3-hydroxy-pyrrolidin-1-yl)-2-trifluoromethyl-phenyl]-2,5,6,7-tetrahydro-cyclopenta[d]pyridazin-1-one]: less than 100 nM.
`COc1cc(OC)cc(-c2nn(-c3cc(NCCCO)ccc3C(F)(F)F)c(=O)c3c2CCC3)c1` [Example 130, 4-(3,5-dimethoxy-phenyl)-2-[5-(3-hydroxy-propylamino)-2-trifluoromethyl-phenyl]-2,5,6,7-tetrahydro-cyclopenta[d]pyridazin-1-one] showed a half-inhibitory concentration (IC50) of less than 100 nM.
Next, `O=c1c2c(c(-c3ccc(Cl)cc3)nn1-c1cc(N3CC[C@H](O)C3)ccc1C(F)(F)F)CCC2` [Example 78, 4-(4-chloro-phenyl)-2-[5-((S)-3-hydroxy-pyrrolidin-1-yl)-2-trifluoromethyl-phenyl]-2,5,6,7-tetrahydro-cyclopenta[d]pyridazin-1-one]: less than 100 nM.
`COc1cc(OC)cc(-c2nn(-c3cc(CN(C)C)ccc3C(F)(F)F)c(=O)c3c2CCC3)c1` [Example 160, 4-(3,5-dimethoxy-phenyl)-2-(5-dimethylaminomethyl-2-trifluoromethyl-phenyl)-2,5,6,7-tetrahydro-cyclopenta[d]pyridazin-1-one hydrochloride] had a 50% inhibitory concentration (IC50) of 100 to 10000 nM.
Next, `COc1cc(OC)cc(-c2nn(-c3cc(N4CC(CO)C4)ccc3C(F)(F)F)c(=O)c3c2CCN3)c1` [Example 1-42, 4-(3,5-dimethoxy-phenyl)-6-[5-(3-hydroxymethyl-azetidin-1-yl)-2-trifluoromethyl-phenyl]-1,2,3,6-tetrahydro-pyrrolo[2,3-d]pyridazin-7-one]: less than 100 nM.
Under `COc1cc(OC)cc(-c2nn(-c3cc(NCC(=O)O)ccc3C(F)(F)F)c(=O)c3c2CCC3)c1` [Example 97, {3-[4-(3,5-dimethoxy-phenyl)-1-oxo-1,5,6,7-tetrahydro-cyclopenta[d]pyridazin-2-yl]-4-trifluoromethyl-phenylamino}-acetic acid] stands less than 100 nM; under `O=c1c2c(c(-c3ccccc3)nn1-c1cc(N3CC[C@H](O)C3)ccc1C(F)(F)F)CCC2` [Example 66, 2-[5-((S)-3-hydroxy-pyrrolidin-1-yl)-2-trifluoromethyl-phenyl]-4-phenyl-2,5,6,7-tetrahydro-cyclopenta[d]pyridazin-1-one], less than 100 nM; under `Cc1cc(C)cc(-c2nn(-c3cc(-c4cccnn4)ccc3C(F)(F)F)c(=O)c3c2CCN3)c1` [Example 10, 4-(3,5-dimethyl-phenyl)-6-(5-pyridazin-3-yl-2-trifluoromethyl-phenyl)-1,2,3,6-tetrahydro-pyrrolo[2,3-d]pyridazin-7-one], less than 100 nM.
Under `COc1cncc(-c2nn(-c3cc(N4CC[C@H](O)C4)ccc3C(F)(F)F)c(=O)c3c2CCC3)c1` [Example 45, 2-[5-((S)-3-hydroxy-pyrrolidin-1-yl)-2-trifluoromethyl-phenyl]-4-(5-methoxy-pyridin-3-yl)-2,5,6,7-tetrahydro-cyclopenta[d]pyridazin-1-one] stands less than 100 nM; under `CCc1ccc(C(F)(F)F)c(-n2nc(-c3cc(OC)cc(OC)c3)c3c(c2=O)CCC3)c1` [Example 89, 4-(3,5-dimethoxy-phenyl)-2-(5-ethyl-2-trifluoromethyl-phenyl)-2,5,6,7-tetrahydro-cyclopenta[d]pyridazin-1-one], less than 100 nM; under `COc1cc(OC)cc(-c2nn(-c3cc(OC)ccc3C(F)(F)F)c(=O)c3c2CCC3)c1` [Example 69, 4-(3,5-dimethoxy-phenyl)-2-(5-methoxy-2-trifluoromethyl-phenyl)-2,5,6,7-tetrahydro-cyclopenta[d]pyridazin-1-one], less than 100 nM.
As for `COc1cc(OC)cc(-c2nn(-c3cc(N4CC[C@H](O)C4)ccc3C(F)(F)F)c(=O)c3c2CCN3CC(=O)NCCCCNC(C)=O)c1` [Example 44, N-(4-acetylamino-butyl)-2-{4-(3,5-dimethoxy-phenyl)-6-[5-((S)-3-hydroxy-pyrrolidin-1-yl)-2-trifluoromethyl-phenyl]-7-oxo-2,3,6,7-tetrahydro-pyrrolo[2,3-d]pyridazin-1-yl}-acetamide], the IC50 is less than 100 nM.
Turning to `CCN(C)c1ccc(C(F)(F)F)c(-n2nc(-c3cc(OC)cc(OC)c3)c3c(c2=O)CCC3)c1` [Example 68, 4-(3,5-dimethoxy-phenyl)-2-[5-(ethyl-methylamino)-2-trifluoromethyl-phenyl]-2,5,6,7-tetrahydro-cyclopenta[d]pyridazin-1-one], the IC50 was less than 100 nM.
On to `O=c1c2c(c(-c3cccc(C(F)(F)F)c3)nn1-c1cc(N3CC[C@H](O)C3)ccc1C(F)(F)F)CCC2` [Example 74, 2-[5-((S)-3-hydroxy-pyrrolidin-1-yl)-2-trifluoromethyl-phenyl]-4-(3-trifluoromethyl-phenyl)-2,5,6,7-tetrahydro-cyclopenta[d]pyridazin-1-one], for which the half-maximal inhibitory concentration (IC50) was less than 100 nM.
The molecule `COc1cc(OC)cc(-c2nn(-c3cc(NCCN)ccc3C(F)(F)F)c(=O)c3c2CCC3)c1` [Example 119, 2-[5-(2-amino-ethylamino)-2-trifluoromethylphenyl]-4-(3,5-dimethoxy-phenyl)-2,5,6,7-tetrahydro-cyclopenta[d]pyridazin-1-one hydrochloride] yielded an IC50 of less than 100 nM.
Under `Cc1cc(-c2cnco2)cc(-c2nn(-c3cc(-c4cccnn4)ccc3C(F)(F)F)c(=O)c3c2CC(C)N3)c1` (centres unmarked) [Example 5, 2-methyl-4-(3-methyl-5-oxazol-5-yl-phenyl)-6-(5-pyridazin-3-yl-2-trifluoromethyl-phenyl)-1,2,3,6-tetrahydro-pyrrolo[2,3-d]pyridazin-7-one] stands less than 100 nM.
The molecule `COc1cc(OC)cc(-c2nn(-c3ccc(N(C)C)cc3C(F)(F)F)c(=O)c3c2CCC3)c1` [Example 108, 4-(3,5-dimethoxy-phenyl)-2-(4-dimethylamino-2-trifluoromethyl-phenyl)-2,5,6,7-tetrahydro-cyclopenta[d]pyridazin-1-one] gave an IC50 of 100 to 10000 nM.
With `Cc1cc(C)cc(-c2nn(-c3cc(-c4cccnn4)ccc3C(F)(F)F)c(=O)c3c2CC(C)N3)c1` (centres unmarked) [Example 12, 4-(3,5-dimethyl-phenyl)-2-methyl-6-(5-pyridazin-3-yl-2-trifluoromethyl-phenyl)-1,2,3,6-tetrahydro-pyrrolo[2,3-d]pyridazin-7-one], the IC50 was less than 100 nM.
`COc1cc(OC)cc(-c2nn(-c3cc(N4CC[C@H](O)C4)ccc3C(F)(F)F)c(=O)c3c2CC(C)N3)c1` (stereo partly drawn) [Example 20, 4-(3,5-dimethoxy-phenyl)-6-[5-((S)-3-hydroxy-pyrrolidin-1-yl)-2-trifluoromethyl-phenyl]-2-methyl-1,2,3,6-tetrahydro-pyrrolo[2,3-d]pyridazin-7-one] came in with an IC50 of less than 100 nM.
Next, `COc1cc(OC)cc(-c2nn(-c3cc(N4CC(CO)C4)ccc3C(F)(F)F)c(=O)c3c2CCCN3CCO)c1` [Example 1-40, 5-(3,5-dimethoxy-phenyl)-1-(2-hydroxy-ethyl)-7-[5-(3-hydroxymethyl-azetidin-1-yl)-2-trifluoromethylphenyl]-1,3,4,7-tetrahydro-2H-pyrido[2,3-d]pyridazin-8-one]: less than 100 nM; `COc1cc(C)cc(-c2nn(-c3cc(N4CC[C@H](O)C4)ccc3C(F)(F)F)c(=O)c3c2CCN3)c1` [Example 14, 6-[5-((S)-3-hydroxy-pyrrolidin-1-yl)-2-trifluoromethyl-phenyl]-4-(3-methoxy-5-methyl-phenyl)-1,2,3,6-tetrahydro-pyrrolo[2,3-d]pyridazin-7-one]: less than 100 nM; `COc1cc(OC)cc(-c2nn(-c3cc(N4CC[C@H](O)C4)ccc3OC)c(=O)c3c2CCC3)c1` [Example 1-15, 4-(3,5-dimethoxy-phenyl)-2-[5-((S)-3-hydroxy-pyrrolidin-1-yl)-2-methoxy-phenyl]-2,5,6,7-tetrahydro-cyclopenta[d]pyridazin-1-one]: 100 to 10000 nM.
